Data reported in patent US6846803B1, “Antagonists specific for the corticotropin-releasing factor receptor type 2 (CRFR2)” (priority 1998, dated 2005).

Columns and labels:
rCRFR1 = molecular target: T1, rCRFR1 (Rattus norvegicus, UniProt P35353); experiment: cAMP stimulation / inhibition of oCRF-stimulated cAMP production in HEK-rCRFR1 cells; assay type: cell-based; details: HEK-rCRFR1 cells; difference significant
T1 construct: expressed in transfected cells; host or cells: HEK 293 cells, stably transfected (HEK-rCRFR1)
T1 sequence (P35353 24-415): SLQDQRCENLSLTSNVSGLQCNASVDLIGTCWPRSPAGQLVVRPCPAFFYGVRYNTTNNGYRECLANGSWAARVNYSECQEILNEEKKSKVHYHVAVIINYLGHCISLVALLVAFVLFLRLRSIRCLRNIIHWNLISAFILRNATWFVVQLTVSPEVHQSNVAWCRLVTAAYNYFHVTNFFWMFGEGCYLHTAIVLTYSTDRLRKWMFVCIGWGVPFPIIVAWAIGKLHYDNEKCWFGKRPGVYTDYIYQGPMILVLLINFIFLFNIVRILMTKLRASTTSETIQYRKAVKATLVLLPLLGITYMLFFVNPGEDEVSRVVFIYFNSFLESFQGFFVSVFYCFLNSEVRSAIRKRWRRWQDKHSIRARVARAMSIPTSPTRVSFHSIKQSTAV
Summary of the method: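 HEK cells expressing rat CRFR1 or mouse CRFR2β were treated with CRF agonists, with or without antagonist at 1 μM or 10 nM, or with antagonist (1 μM) alone. Cells were lysed in 6% TCA (5 min, 100° C.), and cAMP was measured by RIA.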

CRFR2α = molecular target: T2, CRFR2α (Mus musculus, UniProt Q60748); details: BALB/c mice; brain area exclusively expressing CRF2α-mRNA; cited from earlier work
T2 construct: from tissue; host or cells: lateral septum of BALB/c mice, in vivo
T2 sequence (Q60748 whole entry): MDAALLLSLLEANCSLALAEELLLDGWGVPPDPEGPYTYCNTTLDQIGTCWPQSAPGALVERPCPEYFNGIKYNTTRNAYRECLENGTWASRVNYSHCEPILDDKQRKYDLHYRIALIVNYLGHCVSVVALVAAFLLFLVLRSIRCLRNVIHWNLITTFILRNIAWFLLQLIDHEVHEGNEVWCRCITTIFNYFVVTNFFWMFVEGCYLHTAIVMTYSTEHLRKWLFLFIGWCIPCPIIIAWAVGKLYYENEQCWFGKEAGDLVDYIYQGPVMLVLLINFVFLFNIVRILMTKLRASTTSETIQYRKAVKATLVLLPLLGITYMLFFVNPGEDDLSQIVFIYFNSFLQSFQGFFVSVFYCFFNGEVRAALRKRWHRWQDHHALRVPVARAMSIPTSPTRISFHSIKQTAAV

For CC[C@H](C)[C@H](NC(=O)[C@@H](NC(=O)[C@H](CC(=O)O)NC(=O)[C@H](CC(C)C)NC(=O)[C@H](CC(C)C)NC(=O)[C@H](CC(C)C)NC(=O)[C@H](CCCNC(=N)N)NC(=O)[C@H](CC(N)=O)NC(=O)[C@H](CC(N)=O)NC(=O)[C@H](C)NC(=O)[C@H](C)NC(=O)[C@H](CCC(N)=O)NC(=O)[C@H](CCC(N)=O)NC(=O)[C@H](CCCCN)NC(=O)[C@H](CCC(=O)O)NC(=O)[C@H](CCCCN)NC(=O)[C@H](CCC(=O)O)NC(=O)[C@H](CCC(N)=O)NC(=O)[C@H](CCCCN)NC(=O)[C@H](CCC(=O)O)NC(=O)[C@@H](NC(=O)[C@H](CCC(=O)O)NC(=O)[C@@H](NC(=O)[C@H](CCSC)NC(=O)[C@H](CCCCN)NC(=O)[C@H](CCCNC(=N)N)NC(=O)[C@H](CC(C)C)NC(=O)[C@H](CC(C)C)NC(=O)[C@H](Cc1c[nH]cn1)NC(=O)[C@H](N)Cc1ccccc1)[C@@H](C)CC)[C@@H](C)CC)[C@@H](C)O)C(N)=O [[DPhe^11, His^12]Svg(11-40)], the “inhibitory potency towards rCRFR1” value (rCRFR1) is given as 15 % of the potency of astressin and the “CRF-mediated behavioral effects in the lateral septum” value (CRFR2α) is given as “inhibited”.
